Consider 4 molecules from US10781456B2, “Carbon-neutral and carbon-positive photorespiration bypass routes supporting higher photosynthetic rate and yield” (Max-Planck-Gesellschaft zur Förderung der Wissenschaften …, priority 2015, dated 2020).

The Km is the concentration of substrate that gives half-maximal velocity. What is called kcat is the maximal rate divided by the concentration of active sites.

Where two headings read alike, the source gives them in different places. A value given as a limit tells only on which side of the number the result lay.

In data set [1] the target is D-fructose 6-phosphate aldolase encoded by E. coli gene fsaA (UniProt P78055). The settings on record: cited from earlier work.
Data set [2] deals with transaldolase TalB from E. coli (UniProt P0A870). The note with it: cited from earlier work.
The target of data set [3] is transaldolase Tal from B. subtilis (UniProt P19669). The note with it: cited from earlier work.
The target in data set [4] is D-fructose 6-phosphate aldolase encoded by E. coli gene fsaB (UniProt P32669). The note with it: cited from earlier work.
Data set [5] concerns the target transaldolase Tal from C. glutamicum (UniProt Q8NQ64). The note with it: cited from earlier work.
Substrate in data set [6]: O=C(COP(=O)(O)O)[C@H](O)[C@H](O)CO
Briefly: isomerisation of D-ribulose 1-phosphate to D-ribose 1-phosphate (reaction 29#), preliminary study. Format: biochemical. The settings on record: other: preliminary study.

Substrate in data set [7]: O=C(O)CO
Description: purified protein, by the assay type. The note with it: other: 37° C., pH 7.5, 2 mM acetyl-CoA, 10-800 mM glycolate, n=3.

Data set [8] concerns glycolyl-CoA. Description: MCRCa coupled assay: glycolyl-CoA carboxylation by PCC coupled to two step reduction to glycerate by MCRCa (reactions 3#, 4#, 5), HPLC-hrMS and NADPH absorption. It is filed as biochemical. As for the experimental part: In addition to the above mentioned assays also another assay was performed in which the formation of tartronyl-CoA from glycolyl-CoA (reaction 3#) by the PCCMe_D407I_Y143H enzyme was directly coupled to its subsequent two step reduction via tartronate-semialdehyde (reaction 4#) to glycerate (reaction 5) by use of the purified MCRCa (Kröger et al., 2011, loc. cit.). The reaction mixture (300 μL) contained 200 mM NH4HCO3 buffer, pH 7.7, 5 mM MgCl2, 1 mM ATP, 0.4 mM NADPH, 43 μg PCCMe_D407I_Y143H, and 184 μg of MCRCa.
To determine whether MCRCa was able to catalyze the two step reduction of tartonyl-CoA to glycerate (via tartronic semialdehyde), samples of the reaction mixture were withdrawn after all of the NADPH was consumed. The samples were stopped with formic acid (5% final concentration). The acidified samples were centrifuged at 4° C. and 17 000×g and the supernatants were analyzed by HPLC-hrMS.
The formation of glycerate was analyzed using an Agilent 6550 iFunnel Q-TOF LC-MS system equipped with an electrospray ionization source set to negative ionization mode. […]
LC-MS data were analyzed using MassHunter Qualitative Analysis software (Agilent). […] In such assays the tartronate semialdehyde can be covalently derivatized with phenylhydrazine to a phenylhydrazone, which can be detected by its absorbance at 324 nm and confirmed by its corresponding mass spectrum. […]

For data set [9], the system named is glycolyl-CoA. Description: propionyl-CoA carboxylase ATP hydrolysis assay coupled to PK/LDH, NADH oxidation at 340 nm, product tartronyl-CoA confirmed by UPLC-hrMS (reaction 3#). It is filed as biochemical. As for the experimental part:
The activity of the PCCMe_D407I_Y143H protein as well as the PCCMe protein was determined spectrophotometrically at 37° C. The ATP hydrolysis reaction of the respective enzyme was coupled to ATP regeneration by pyruvate kinase (PK) with phosphoenolpyruvate (PEP) and subsequent reduction to lactate by lactate dehydrogenase (LDH). The oxidation of NADH by LDH was followed spectrophotometrically at 340 nm. The reaction mixture (300 μL) contained 200 mM NH4HCO3 buffer, pH 7.7, 5 mM MgCl2, 1 mM ATP, 1 mM PEP, 4 U PK, 5.8 U LDH, 0.3 mM NADH and 48 μg of PCCMe_D407I_Y143H or PCCMe. The reaction was initiated by addition of 1 mM glycolyl-CoA. Samples for UPLC-hrMS were withdrawn and stopped by acidification (5% formic acid) after most of the NADH was consumed. Precipitated protein was removed by centrifugation at 4° C. and 17 000×g. The supernatants were analyzed by UPLC-hrMS as described above. […] As mentioned above, and shown in FIG. 10, the glycolyl-CoA carboxylation activity of the PCCMe_D407I_Y143H enzyme was confirmed by direct detection of the product tartronyl-CoA by UPLC-hrMS.
In a second assay, the reaction mixture was slightly modified for a ^13C labeling experiment. Here, the reaction mixture contained 50 mM NH4HCO3 buffer, pH 7.7 and 150 mM [^13C]NaHCO3, pH 7.7 (otherwise as above-mentioned). […]

Where [10] appears, read: as an acceptor, read-out: KM for glycolaldehyde as an acceptor.
Where [11] appears, read: bound stated for both fsaA and fsaB enzymes, read-out: KM (condensation of glycolaldehyde as donor with D-glyceraldehyde 3-phosphate as acceptor).
The mark [12] stands for this setting: D-fructose 6-phosphate and glycolaldehyde, range over the three transaldolases.
[13] abbreviates: transaldolase reaction with D-fructose 6-phosphate, read-out: KM towards glycolaldehyde.

For the molecule `O=CCO` [glycolaldehyde], the Michaelis-Menten constant (Km) is more than 60000 µM in data set [1] (setting [10]); less than 1000 µM in data set [1] (setting [11]); approximately 200 µM in data set [1] (read-out: KM for glycolaldehyde); more than 60 mM in data set [2] (setting [13]); more than 60 mM in data set [3] (setting [13]); more than 60 mM in data set [4] (setting [10]). Besides, the Km in data set [4] (setting [11]) was less than 1 mM; in data set [5] (setting [13]), more than 60 mM. Moreover, the vmax in [2] (setting [12]), in data set [3] (setting [12]) and in [5] (setting [12]) was 1.6 to 8.8 µmol/min/mg throughout.

B1: 5-methylthio-D-ribulose 1-phosphate 1,2-isomerase Rru_A0360 (Rhodospirillum rubrum ATCC 11170) (protein)
chain: MNVKGTPTRTIWPAREGGAVWIIDQTRLPHEFVTQRLNDLGAVAHAIRAMLVRGAPLIGATAAYGVALGMAEDPSDEGLTRACQTLLATRPTAVNLRWAIEAMAESLAAVPPDQRAQAAWAKAGAICDEDVALNEAIGDHGLGIIKDLARTKGVEKGGEGPINILTHCNAGWLATVDWGTALAPLYKAHDAGLPIHVWVDETRPRNQGASLTAWELNSHGVPHTVIADNTGGHLMQHGLVDMVIVGTDRTTATGDVCNKIGTYLKALAAFDNAVPFYVALPGPTIDWTVNDGLREIPIEQRDAAEVTRVWGRTAAGALEWVTITPTGSPAANYAFDVTPARLITGLITERGVCAASAAGLAGLYPERAPAPVPAGSAAGKGAAATADGAL
notes: preliminary kinetics, preparation not described
With B1, the kcat in [6] was 0.03 s⁻¹.

B2: propionyl-CoA transferase from Ralstonia eutropha (PCTRe), wild type, SEQ ID NO: 12 (Cupriavidus necator H16) (protein)
chain: MKVITAREAAALVQDGWTVASAGFVGAGHAEAVTEALEQRFLQSGLPRDLTLVYSAGQGDRGARGVNHFGNAGMTASIVGGHWRSATRLATLAMAEQCEGYNLPQGVLTHLYRAIAGGKPGVMTKIGLHTFVDPRTAQDARYHGGAVNERARQAIAEGKACWVDAVDFRGDEYLFYPSFPIHCALIRCTAADARGNLSTHREAFHHELLAMAQAAHNSGGIVIAQVESLVDHHEILQAIHVPGILVDYVVVCDNPANHQMTFAESYNPAYVTPWQGEAAVAEAEAAPVAAGPLDARTIVQRRAVMELARRAPRVVNLGVGMPAAVGMLAHQAGLDGFTLTVEAGPIGGTPADGLSFGASAYPEAVVDQPAQFDFYEGGGIDLAILGLAELDGHGNVNVSKFGEGEGASIAGVGGFINITQSARAVVFMGTLTAGGLEVRAGDGGLQIVREGRVKKIVPEVSHLSFNGPYVASLGIPVLYITERAVFEMRAGADGEARLTLVEIAPGVDLQRDVLDQCSTPIAVAQDLREMDARLFQAGPLHL
Regarding B2, in [7], the Michaelis constant (Km) is listed as 51.7 ± 9.6 mM (glycolate) mM.

B3: PCCMe: propionyl-CoA carboxylase of Methylobacterium extorquens, subunits pccA (SEQ ID NO: 2) and pccB (SEQ ID NO: 4) (protein, listed as Methylobacterium extorquens)
alpha: MFDKILIANRGEIACRIIKTAQKMGIKTVAVYSDADRDAVHVAMADEAVHIGPAPAAQSYLLIEKIIDACKQTGAQAVHPGYGFLSERESFPKALAEAGIVFIGPNPGAIAAMGDKIESKKAAAAAEVSTVPGFLGVIESPEHAVTIADEIGYPVMIKASAGGGGKGMRIAESADEVAEGFARAKSEASSSFGDDRVFVEKFITDPRHIEIQVIGDKHGNVIYLGERECSIQRRNQKVIEEAPSPLLDEETRRKMGEQAVALAKAVNYDSAGTVEFVAGQDKSFYFLEMNTRLQVEHPVTEMITGLDLVELMIRVAAGEKLPLSQDQVKLDGWAVESRVYAEDPTRNFLPSIGRLTTYQPPEEGPLGGAIVRNDTGVEEGGEIAIHYDPMIAKLVTWAPTRLEAIEAQATALDAFAIEGIRHNIPFLATLMAHPRWRDGRLSTGFIKEEFPEGFIAPEPEGPVAHRLAAVAAAIDHKLNIRKRGISGQMRDPSLLTFQRERVVVLSGQRFNVTVDPDGDDLLVTFDDGTTAPVRSAWRPGAPVWSGTVGDQSVAIQVRPLLNGVFLQHAGAAAEARVFTRREAELADLMPVKENAGSGKQLLCPMPGLVKQIMVSEGQEVKNGEPLAIVEAMKMENVLRAERDGTISKIAAKEGDSLAVDAVILEFA
beta: MKDILEKLEERRAQARLGGGEKRLEAQHKRGKLTARERIELLLDHGSFEEFDMFVQHRSTDFGMEKQKIPGDGVVTGWGTVNGRTVFLFSKDFTVFGGSLSEAHAAKIVKVQDMALKMRAPIIGIFDAGGARIQEGVAALGGYGEVFRRNVAASGVIPQISVIMGPCAGGDVYSPAMTDFIFMVRDTSYMFVTGPDVVKTVTNEVVTAEELGGAKVHTSKSSIADGSFENDVEAILQIRRLLDFLPANNIEGVPEIESFDDVNRLDKSLDTLIPDNPNKPYDMGELIRRVVDEGDFFEIQAAYARNIITGFGRVEGRTVGFVANQPLVLAGVLDSDASRKAARFVRFCNAFSIPIVTFVDVPGFLPGTAQEYGGLIKHGAKLLFAYSQATVPLVTIITRKAFGGAYDVMASKHVGADLNYAWPTAQIAVMGAKGAVEIIFRAEIGDADKIAERTKEYEDRFLSPFVAAERGYIDEVIMPHSTRKRIARALGMLRTKEMEQPWKKHDNIPL
modifications: [CDS]1..2004 from SEQ ID NO 1; [CDS]1..1533 from SEQ ID NO 3
For the molecule B3, in the data set with glycolyl-CoA [8], the “activity with glycolyl-CoA in the MCRCa coupled assay” value is recorded as “no activity could be measured”. Also, the “glycolyl-CoA carboxylation activity (tartronyl-CoA by UPLC-hrMS)” value with glycolyl-CoA [9] is “exhibited a glycolyl-CoA carboxylation activity, although the activity was lower”. In the data set on glycolyl-CoA [9] (1 mM glycolyl-CoA, 37° C.), the “glycolyl-CoA-dependent ATP hydrolysis rate” value is reported as 0.4 U mg^−1.
